The target in assay [1] is T1, SMYD3 (Homo sapiens (Human), UniProt Q9H7B4). The experiment in a line: SMYD3 biochemical assay (SPA, 3H-SAM methylation of MEKK2 protein substrate). Conditions: read-out: SMYD3 Biochem IC50. An outline of the steps: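 Tritium incorporation into GST-MEKK2 is counted by scintillation proximity after citric acid bead capture. Native human SMYD3 is preincubated with test compound for 30 min at room temperature at pH 8.0 (Tris-Cl, TCEP, BSG, Tween 20) before 3H-SAM and substrate are added; cold SAM at 100 uM final stops turnover.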
T1 sequence (Q9H7B4 whole entry): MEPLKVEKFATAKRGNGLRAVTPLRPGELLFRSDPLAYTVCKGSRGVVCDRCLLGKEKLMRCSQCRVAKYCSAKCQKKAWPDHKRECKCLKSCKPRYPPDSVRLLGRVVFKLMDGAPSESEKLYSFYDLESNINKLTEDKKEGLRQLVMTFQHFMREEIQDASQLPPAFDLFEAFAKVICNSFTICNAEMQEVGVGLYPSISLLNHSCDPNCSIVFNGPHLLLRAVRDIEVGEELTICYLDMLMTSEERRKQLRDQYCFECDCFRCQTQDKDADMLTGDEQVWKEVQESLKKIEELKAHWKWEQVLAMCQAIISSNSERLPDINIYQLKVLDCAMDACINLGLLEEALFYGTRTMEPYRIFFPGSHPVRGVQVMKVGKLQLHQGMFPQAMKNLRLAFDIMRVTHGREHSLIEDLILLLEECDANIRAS

For assay [2], the target named is T1, SMYD3. As to the kind of experiment: SMYD3 cell assay (Trimethyl-MEKK2 In-Cell Western in 293T/17 cells). In kind it is cell-based. Conditions: read-out: SMYD3 Cell IC50. An outline of the steps: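 In-Cell Western ratio of trimethyl-Lys260 MEKK2 to anti-flag signal; percent inhibition from DMSO and maximum-inhibition controls, IC50 by non-linear regression, triplicates.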

[3] abbreviates: Table 1A, IC50 values are an average of n = 1 to n = 50.

Broadly, the IC50 is the concentration needed to halve the response being measured. Take `COCCNc1ccc(S(=O)(=O)N2CC[C@@H](NC(=O)c3cc(C4CC4)on3)C[C@@H]2C)cn1` [compound 505, 5-cyclopropyl-N-((2S,4R)-1-((6-((2-methoxyethyl)amino)pyridin-3-yl)sulfonyl)-2-methylpiperidin-4-yl)isoxazole-3-carboxamide]: the IC50 in assay [1] and in assay [2] (setting [3]) was more than 10000 nM throughout.

`C[C@@H]1C[C@@H](NC(=O)c2cc(C3CC3)on2)CCN1S(=O)(=O)c1ccc(NCCN2CCOCC2)nc1` [compound 506, 5-cyclopropyl-N-((2R,4S)-2-methyl-1-((6-((2-morpholinoethyl)amino)pyridin-3-yl)sulfonyl)piperidin-4-yl)isoxazole-3-carboxamide]: the results for the IC50 in assay [1] (setting [3]) and in assay [2] (setting [3]) were 3970 nM and more than 10000 nM, respectively.

`C[C@H]1C[C@H](NC(=O)c2cc(C3CC3)on2)CCN1S(=O)(=O)c1ccc(NCCN2CCOCC2)nc1` [compound 507, 5-cyclopropyl-N-((2S,4R)-2-methyl-1-((6-((2-morpholinoethyl)amino)pyridin-3-yl)sulfonyl)piperidin-4-yl)isoxazole-3-carboxamide]: the figures for the IC50 in assay [1] (setting [3]) and in assay [2] (setting [3]) were 5540 nM and more than 10000 nM, respectively.

Take `O=C(N[C@H]1C[C@H]2CC[C@@H](C1)N2S(=O)(=O)CC1CCNCC1)c1cc(C2CC2)on1` [compound 526, 5-cyclopropyl-N-((1R,3r,5S)-8-((piperidin-4-ylmethyl)sulfonyl)-8-azabicyclo[3.2.1]octan-3-yl)isoxazole-3-carboxamide]: the figures for the IC50 in assay [1] (setting [3]) and in assay [2] (setting [3]) were 1 nM and 15 nM, respectively.

Take `O=C(N[C@H]1C[C@H]2CC[C@@H](C1)N2S(=O)(=O)N1CCNCC1)c1cc(C2CC2)on1` [compound 527, 5-cyclopropyl-N-((1R,3r,5S)-8-(piperazin-1-ylsulfonyl)-8-azabicyclo[3.2.1]octan-3-yl)isoxazole-3-carboxamide]: the results for the IC50 in assay [1] (setting [3]) and in assay [2] (setting [3]) were 3 nM and 32 nM, respectively.

On to `C[C@H]1C[C@@H](NC(=O)c2cc(C3CC3)on2)CCN1S(=O)(=O)CC1CCN(CCc2ccccc2)CC1` [compound 530, 5-cyclopropyl-N-((2S,4S)-2-methyl-1-(((1-phenethylpiperidin-4-yl)methyl)sulfonyl)piperidin-4-yl)isoxazole-3-carboxamide], for which the results for the IC50 in assay [1] (Table 2A) and in assay [2] (Table 2A) were 0.9 nM and 23.9 nM, respectively.

`O=C(N[C@H]1C[C@H]2CC[C@@H](C1)N2S(=O)(=O)CC1CCN(CCO)CC1)c1cc(C2CC2)on1` [compound 531, 5-cyclopropyl-N-((1R,3r,5S)-8-(((1-(2-hydroxyethyl)piperidin-4-yl)methyl)sulfonyl)-8-azabicyclo[3.2.1]octan-3-yl)isoxazole-3-carboxamide]: the IC50 in assay [1] (Table 2A) came to 0.9 nM; in assay [2] (Table 2A), 33.1 nM.

For `C[C@H]1C[C@@H](NC(=O)c2cc(C3CC3)on2)CCN1S(=O)(=O)CC1CCN(C)CC1` [compound 533, 5-cyclopropyl-N-((2S,4S)-2-methyl-1-(((1-methylpiperidin-4-yl)methyl)sulfonyl)piperidin-4-yl)isoxazole-3-carboxamide], the IC50 in assay [1] (Table 2A) was determined as 1 nM; in assay [2] (Table 2A), 30.8 nM.

With `O=C(N[C@H]1C[C@H]2CC[C@@H](C1)N2S(=O)(=O)CC1CCN(CCCO)CC1)c1cc(C2CC2)on1` [compound 534, 5-cyclopropyl-N-((1R,3r,5S)-8-(((1-(3-hydroxypropyl)piperidin-4-yl)methyl)sulfonyl)-8-azabicyclo[3.2.1]octan-3-yl)isoxazole-3-carboxamide], the values for the IC50 in assay [1] (Table 2A) and in assay [2] (Table 2A) were 1.1 nM and 27.7 nM, respectively.

Regarding `CNC1CCN(S(=O)(=O)N2CC[C@H](NC(=O)c3cc(C4CC4)on3)C[C@@H]2C)CC1` [compound 535, 5-cyclopropyl-N-((2S,4S)-2-methyl-1-((4-(methylamino)piperidin-1-yl)sulfonyl)piperidin-4-yl)isoxazole-3-carboxamide], the figures for the IC50 in assay [1] (Table 2A) and in assay [2] (Table 2A) were 1.2 nM and 21.2 nM, respectively.

Consider `O=C(N[C@H]1C[C@H]2CC[C@@H](C1)N2S(=O)(=O)CC1CCN(Cc2ccccc2)CC1)c1cc(C2CC2)on1` [compound 536, N-((1R,3r,5S)-8-(((1-benzylpiperidin-4-yl)methyl)sulfonyl)-8-azabicyclo[3.2.1]octan-3-yl)-5-cyclopropylisoxazole-3-carboxamide], for which the IC50 worked out at 1.2 nM in assay [1] (Table 2A) and 58 nM in assay [2] (Table 2A).

As to `C[C@@H]1C[C@H](NC(=O)c2cc(C3CC3)on2)CCN1S(=O)(=O)CC1CCN(CCc2ccccc2)CC1` [compound 537, 5-cyclopropyl-N-((2R,4R)-2-methyl-1-(((1-phenethylpiperidin-4-yl)methyl)sulfonyl)piperidin-4-yl)isoxazole-3-carboxamide], the IC50 is 1.3 nM in assay [1] (Table 2A) and 72.5 nM in assay [2] (Table 2A).

On to `C[C@H]1C[C@@H](NC(=O)c2cc(C3CC3)on2)CCN1S(=O)(=O)CC1CCN(CCO)CC1` [compound 538, 5-cyclopropyl-N-((2S,4S)-1-(((1-(2-hydroxyethyl)piperidin-4-yl)methyl)sulfonyl)-2-methylpiperidin-4-yl)isoxazole-3-carboxamide], for which the IC50 in assay [1] (Table 2A) is 1.3 nM; in assay [2] (Table 2A) it was 29.4 nM.

On to `COCCCN1CCC(CS(=O)(=O)N2[C@@H]3CC[C@H]2C[C@@H](NC(=O)c2cc(C4CC4)on2)C3)CC1` [compound 542, 5-cyclopropyl-N-((1R,3r,5S)-8-(((1-(3-methoxypropyl)piperidin-4-yl)methyl)sulfonyl)-8-azabicyclo[3.2.1]octan-3-yl)isoxazole-3-carboxamide], for which the IC50 in assay [1] (Table 2A) was 1.6 nM; in assay [2] (Table 2A) it was 49.6 nM.

For the molecule `C[C@H]1C[C@@H](NC(=O)c2cc(C3CC3)on2)CCN1S(=O)(=O)CC1CCN(Cc2ccccc2)CC1` [compound 544, N-((2S,4S)-1-(((1-benzylpiperidin-4-yl)methyl)sulfonyl)-2-methylpiperidin-4-yl)-5-cyclopropylisoxazole-3-carboxamide], the IC50 amounted to 1.9 nM in assay [1] (Table 2A) and 44.7 nM in assay [2] (Table 2A).

As to `C[C@H]1C[C@@H](NC(=O)c2cc(C3CC3)on2)CCN1S(=O)(=O)N1CCC(N(C)C)CC1` [compound 545, 5-cyclopropyl-N-((2S,4S)-1-((4-(dimethylamino)piperidin-1-yl)sulfonyl)-2-methylpiperidin-4-yl)isoxazole-3-carboxamide], the IC50 in assay [1] (Table 2A) was determined as 2 nM; in assay [2] (Table 2A), 39.9 nM.

For the molecule `C[C@H]1C[C@@H](NC(=O)c2cc(C3CC3)on2)CCN1S(=O)(=O)N1CCC(NCc2ccccc2)CC1` [compound 546, N-((2S,4S)-1-((4-(benzylamino)piperidin-1-yl)sulfonyl)-2-methylpiperidin-4-yl)-5-cyclopropylisoxazole-3-carboxamide], the IC50 came to 2.1 nM in assay [1] (Table 2A) and 36 nM in assay [2] (Table 2A).

`O=C(N[C@H]1C[C@H]2CC[C@@H](C1)N2S(=O)(=O)CC1CCCNC1)c1cc(C2CC2)on1` (stereo partly drawn) [compound 547, 5-cyclopropyl-N-((1R,3r,5S)-8-((piperidin-3-ylmethyl)sulfonyl)-8-azabicyclo[3.2.1]octan-3-yl)isoxazole-3-carboxamide]: the IC50 turned out to be 2.3 nM in assay [1] (Table 2A) and 70.4 nM in assay [2] (Table 2A).

Consider `C[C@H]1C[C@@H](NC(=O)c2cc(C3CC3)on2)CCN1S(=O)(=O)CCCCN` [compound 548, N-((2S,4S)-1-((4-aminobutyl)sulfonyl)-2-methylpiperidin-4-yl)-5-cyclopropylisoxazole-3-carboxamide], for which the figures for the IC50 in assay [1] (Table 2A) and in assay [2] (Table 2A) were 2.4 nM and 94.1 nM, respectively.

The values are drawn from US10577363B2, “Substituted piperidine compounds” (EPIZYME, INC., priority 2014, dated 2020).
